The record followed here is the supplement of paper PMC10307832.

Common to all, as to experiment: relative viability (nuclei count vs DMSO), 5 days (fraction); higher = more cells survive
Compound in the assay “XMD13-2 + Alpelisib”: C1CC1C(=O)NC2=NNC3=C2C=CC(=C3)C4=CC(=CC=C4)C(=O)NC5CC5 [XMD13-2] + Cc1nc(NC(=O)N2CCC[C@H]2C(N)=O)sc1-c1ccnc(C(C)(C)C(F)(F)F)c1 [Alpelisib] (partner 2 µM)
The method, boiled down: (§1)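 Lung cancer cell lines were pin-tool dosed in 1536-well plates on the day after seeding, with either a lone drug or a fixed anchor-drug dose plus five library-drug doses (not always all listed) in √10 steps. Nuclei were counted on 4× images after 5 days. Relative viability is the ratio of treated-well to vehicle-well nuclei counts, with each value a median of duplicate plates.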

Compound in the assay “ALW-II-49-7 + Decitabine”: Cc1ccc(C(=O)Nc2cccc(C(F)(F)F)c2)cc1Nc1cncc(C(N)=O)c1 [ALW-II-49-7] + Nc1ncn([C@H]2C[C@H](O)[C@@H](CO)O2)c(=O)n1 [Decitabine] (partner 2 µM)
The method, boiled down: as §1

Compound in the assay “Dasatinib + AZD7762”: Cc1nc(Nc2ncc(C(=O)Nc3c(C)cccc3Cl)s2)cc(N2CCN(CCO)CC2)n1 [Dasatinib] + NC(=O)Nc1cc(-c2cccc(F)c2)sc1C(=O)N[C@H]1CCCNC1 [AZD7762] (partner 0.2 µM)
The method, boiled down: as §1

Compound in assay [1]: Cc1ccc(C(=O)Nc2cccc(C(F)(F)F)c2)cc1Nc1cncc(C(N)=O)c1 [ALW-II-49-7] + CC(=O)c1c(C)c2cnc(Nc3ccc(N4CCNCC4)cn3)nc2n(C2CCCC2)c1=O [Palbociclib] (partner 0.5 µM)
A digest of the protocol: as §1

A549: the relative viability amounted to 1.05 in the assay with XMD13-2 + Alpelisib (first compound 0.05 µM); 0.709 with XMD13-2 + Alpelisib (first compound 0.1581 µM); 0.812 in the assay with XMD13-2 + Alpelisib (first compound 0.5 µM); 0.714 with XMD13-2 + Alpelisib (first compound 1.581 µM); 0.952 with XMD13-2 + Alpelisib (first compound 5 µM); 0.207 with ALW-II-49-7 + Decitabine (first compound 0.08 µM). The relative viability with ALW-II-49-7 + Decitabine (first compound 0.253 µM) came out at 0.211; in the assay with ALW-II-49-7 + Decitabine (first compound 0.8 µM), 0.246; with ALW-II-49-7 + Decitabine (first compound 2.53 µM) it was 0.335; with ALW-II-49-7 + Decitabine (first compound 8 µM) it was 0.254.
As for CAL-12T, the relative viability in the assay with Dasatinib + AZD7762 (first compound 0.005 µM) was determined as 0.637; in the assay with Dasatinib + AZD7762 (first compound 0.01581 µM), 0.584; with Dasatinib + AZD7762 (first compound 0.05 µM), 0.681; with Dasatinib + AZD7762 (first compound 0.1581 µM), 0.613; with Dasatinib + AZD7762 (first compound 0.5 µM), 0.538; in the assay with XMD13-2 + Alpelisib (first compound 0.05 µM) it was 1.31. Also, the relative viability with XMD13-2 + Alpelisib (first compound 0.1581 µM) was 1.18; in the assay with XMD13-2 + Alpelisib (first compound 0.5 µM), 1.24; with XMD13-2 + Alpelisib (first compound 1.581 µM), 1.11; in the assay with XMD13-2 + Alpelisib (first compound 5 µM), 1.4; in assay [1] (first compound 0.08 µM), 0.381; in assay [1] (first compound 0.253 µM), 0.423. Also, the relative viability in assay [1] (first compound 0.8 µM) worked out at 0.46; in assay [1] (first compound 2.53 µM) it was 0.411; in assay [1] (first compound 8 µM), 0.365.
Take COR-L23: the relative viability with XMD13-2 + Alpelisib (first compound 0.05 µM) worked out at 0.931; with XMD13-2 + Alpelisib (first compound 0.1581 µM), 0.77; with XMD13-2 + Alpelisib (first compound 0.5 µM), 0.951; with XMD13-2 + Alpelisib (first compound 1.581 µM), 0.741; with XMD13-2 + Alpelisib (first compound 5 µM), 0.805; with ALW-II-49-7 + Decitabine (first compound 0.08 µM), 0.426. For the same cell line, the relative viability was found to be 0.521 in the assay with ALW-II-49-7 + Decitabine (first compound 0.253 µM); 0.408 with ALW-II-49-7 + Decitabine (first compound 0.8 µM); 0.501 with ALW-II-49-7 + Decitabine (first compound 2.53 µM); 0.439 with ALW-II-49-7 + Decitabine (first compound 8 µM); 0.276 in assay [1] (first compound 0.08 µM); 0.271 in assay [1] (first compound 0.253 µM). Moreover, the relative viability was determined as 0.245 in assay [1] (first compound 0.8 µM), 0.274 in assay [1] (first compound 2.53 µM) and 0.259 in assay [1] (first compound 8 µM).
COR-L 105: the relative viability came out at 1.06 with XMD13-2 + Alpelisib (first compound 0.05 µM); 1.36 in the assay with XMD13-2 + Alpelisib (first compound 0.1581 µM); 0.984 in the assay with XMD13-2 + Alpelisib (first compound 0.5 µM); 0.964 in the assay with XMD13-2 + Alpelisib (first compound 1.581 µM); 0.945 with XMD13-2 + Alpelisib (first compound 5 µM); 0.722 with ALW-II-49-7 + Decitabine (first compound 0.08 µM). The relative viability with ALW-II-49-7 + Decitabine (first compound 0.253 µM) came out at 0.71; with ALW-II-49-7 + Decitabine (first compound 0.8 µM) it was 0.673; with ALW-II-49-7 + Decitabine (first compound 2.53 µM), 0.58; with ALW-II-49-7 + Decitabine (first compound 8 µM) it was 0.616; in assay [1] (first compound 0.08 µM), 0.391; in assay [1] (first compound 0.253 µM), 0.333. Further, the relative viability in assay [1] (first compound 0.8 µM) came to 0.41; in assay [1] (first compound 2.53 µM), 0.421; in assay [1] (first compound 8 µM) it was 0.423.
Consider Calu-6, for which the relative viability with XMD13-2 + Alpelisib (first compound 0.05 µM) came out at 1.02; in the assay with XMD13-2 + Alpelisib (first compound 0.1581 µM), 0.948; with XMD13-2 + Alpelisib (first compound 0.5 µM), 1.04; with XMD13-2 + Alpelisib (first compound 1.581 µM), 0.923; in the assay with XMD13-2 + Alpelisib (first compound 5 µM) it was 0.757.
For the cell line ChaGo-K-1, the relative viability with Dasatinib + AZD7762 (first compound 0.005 µM) turned out to be 0.854; in the assay with Dasatinib + AZD7762 (first compound 0.01581 µM) it was 0.77; with Dasatinib + AZD7762 (first compound 0.05 µM), 0.822; in the assay with Dasatinib + AZD7762 (first compound 0.1581 µM) it was 0.705; in the assay with Dasatinib + AZD7762 (first compound 0.5 µM), 0.549; with ALW-II-49-7 + Decitabine (first compound 0.08 µM), 0.541. The relative viability in the assay with ALW-II-49-7 + Decitabine (first compound 0.253 µM) amounted to 0.472; with ALW-II-49-7 + Decitabine (first compound 0.8 µM), 0.526; with ALW-II-49-7 + Decitabine (first compound 2.53 µM), 0.537; in the assay with ALW-II-49-7 + Decitabine (first compound 8 µM) it was 0.546; in assay [1] (first compound 0.08 µM) it was 0.949; in assay [1] (first compound 0.253 µM), 0.98. The relative viability in assay [1] (first compound 0.8 µM) stood at 0.954; in assay [1] (first compound 2.53 µM), 0.887; in assay [1] (first compound 8 µM), 0.98.
For the cell line EBC-1, the relative viability with XMD13-2 + Alpelisib (first compound 0.05 µM) worked out at 0.999; with XMD13-2 + Alpelisib (first compound 0.1581 µM), 0.801; with XMD13-2 + Alpelisib (first compound 0.5 µM), 0.907; with XMD13-2 + Alpelisib (first compound 1.581 µM), 0.738; with XMD13-2 + Alpelisib (first compound 5 µM), 0.483.
In the same order, the values of IA-LM are 0.86, 0.962, 0.766, 0.767 and 0.901.
As for NCI-H520, the relative viability with XMD13-2 + Alpelisib (first compound 0.05 µM) worked out at 0.921; with XMD13-2 + Alpelisib (first compound 0.1581 µM), 0.954; with XMD13-2 + Alpelisib (first compound 0.5 µM), 0.967; with XMD13-2 + Alpelisib (first compound 1.581 µM), 0.861; in the assay with XMD13-2 + Alpelisib (first compound 5 µM), 0.49; in the assay with ALW-II-49-7 + Decitabine (first compound 0.08 µM) it was 0.559. In addition, the relative viability in the assay with ALW-II-49-7 + Decitabine (first compound 0.253 µM) was 0.472; in the assay with ALW-II-49-7 + Decitabine (first compound 0.8 µM), 0.497; in the assay with ALW-II-49-7 + Decitabine (first compound 2.53 µM), 0.531; in the assay with ALW-II-49-7 + Decitabine (first compound 8 µM), 0.561; in assay [1] (first compound 0.08 µM), 0.219; in assay [1] (first compound 0.253 µM), 0.234. Further, the relative viability in assay [1] (first compound 0.8 µM) amounted to 0.205; in assay [1] (first compound 2.53 µM), 0.213; in assay [1] (first compound 8 µM), 0.21.
Consider NCI-H522, for which the relative viability with Dasatinib + AZD7762 (first compound 0.005 µM) is 0.857; with Dasatinib + AZD7762 (first compound 0.01581 µM) it was 0.73; in the assay with Dasatinib + AZD7762 (first compound 0.05 µM), 0.882; with Dasatinib + AZD7762 (first compound 0.1581 µM), 0.654; in the assay with Dasatinib + AZD7762 (first compound 0.5 µM) it was 0.634; with ALW-II-49-7 + Decitabine (first compound 0.08 µM), 0.67. The relative viability in the assay with ALW-II-49-7 + Decitabine (first compound 0.253 µM) came out at 0.669; in the assay with ALW-II-49-7 + Decitabine (first compound 0.8 µM) it was 0.697; with ALW-II-49-7 + Decitabine (first compound 2.53 µM), 0.732; with ALW-II-49-7 + Decitabine (first compound 8 µM), 0.692; in assay [1] (first compound 0.08 µM), 0.962; in assay [1] (first compound 0.253 µM), 0.921. Moreover, the relative viability in assay [1] (first compound 0.8 µM) worked out at 1.2; in assay [1] (first compound 2.53 µM), 1.04; in assay [1] (first compound 8 µM), 0.979.
Turning to NCI-H596, the relative viability came out at 0.945 with Dasatinib + AZD7762 (first compound 0.005 µM); 0.828 with Dasatinib + AZD7762 (first compound 0.01581 µM); 0.929 in the assay with Dasatinib + AZD7762 (first compound 0.05 µM); 0.74 in the assay with Dasatinib + AZD7762 (first compound 0.1581 µM); 0.553 with Dasatinib + AZD7762 (first compound 0.5 µM); 0.624 with XMD13-2 + Alpelisib (first compound 0.05 µM). Moreover, the relative viability worked out at 0.543 in the assay with XMD13-2 + Alpelisib (first compound 0.1581 µM); 0.407 with XMD13-2 + Alpelisib (first compound 0.5 µM); 0.587 in the assay with XMD13-2 + Alpelisib (first compound 1.581 µM); 0.0287 in the assay with XMD13-2 + Alpelisib (first compound 5 µM); 0.884 in the assay with ALW-II-49-7 + Decitabine (first compound 0.08 µM); 1.23 with ALW-II-49-7 + Decitabine (first compound 0.253 µM). Also, the relative viability was 1.1 in the assay with ALW-II-49-7 + Decitabine (first compound 0.8 µM), 1.12 in the assay with ALW-II-49-7 + Decitabine (first compound 2.53 µM) and 1.05 with ALW-II-49-7 + Decitabine (first compound 8 µM).
In the case of NCI-H661, the relative viability with XMD13-2 + Alpelisib (first compound 0.05 µM) came to 0.751; in the assay with XMD13-2 + Alpelisib (first compound 0.1581 µM), 0.854; in the assay with XMD13-2 + Alpelisib (first compound 0.5 µM) it was 0.506; with XMD13-2 + Alpelisib (first compound 1.581 µM) it was 0.4; in the assay with XMD13-2 + Alpelisib (first compound 5 µM), 0.448; with ALW-II-49-7 + Decitabine (first compound 0.08 µM), 0.519. For the same cell line, the relative viability with ALW-II-49-7 + Decitabine (first compound 0.253 µM) stood at 0.583; in the assay with ALW-II-49-7 + Decitabine (first compound 0.8 µM), 0.574; with ALW-II-49-7 + Decitabine (first compound 2.53 µM), 0.541; with ALW-II-49-7 + Decitabine (first compound 8 µM), 0.5; in assay [1] (first compound 0.08 µM), 0.384; in assay [1] (first compound 0.253 µM), 0.443. Besides, the values for the relative viability in assay [1] (first compound 0.8 µM), in assay [1] (first compound 2.53 µM) and in assay [1] (first compound 8 µM) were 0.39, 0.384 and 0.404, respectively.
